Data published in US20110111976A1, “MICRORNA BIOMARKERS OF TISSUE INJURY” (priority 2008, published 2011).
Where “and” joins values, the source holds several entries; their conditions need not be identical. Identical values can stand only once.

How the values were obtained:
Sprague-Dawley rats [1] = assay: Kidney histopathology (proximal tubule overall tissue injury) of toxicant-treated rats; assay type: in vivo, rat; details: Gentamicin 240 mg/kg/day intraperitoneal, Day 12, individual male rats
Source text: (§1) Animals Male and female Sprague-Dawley rats were obtained from Charles River Laboratories, Inc. (Raleigh, N.C.). The rats were approximately seven to eight weeks of age and weighed from 125 to 325 grams at the start of the study. The animals were acclimated for approximately one week and randomized into treatment and control groups. During the toxicity studies targeting kidney, the animals were maintained on a caloric-restricted diet, and fasted overnight prior to necropsy. Doses were different for each model compound tested and were calculated based on animal body weight. For the compounds, routes of administration, dose groups, and time points, see the below Test Compound section.

Sprague-Dawley rats [2] = assay: miR-10a in urine of kidney-toxicant-treated rats by qPCR; assay type: in vivo, rat; details: Gentamicin 240 mg/kg/day intraperitoneal, individual male rats
Source text: as §1
Urine Samples Urine samples were collected overnight on either dry or wet ice, aliquoted, and stored at −70° C. […] Urine samples were thawed on ice and about 1 milliliter (ml) of each sample placed into a tube. Each sample was placed in a room temperature speed-vac to reduce sample volume to about 200 microliters (μl). About 1 ml of trizol was added to the viscous concentrated urine solution and RNA extracted using Ambion BlycoBlue and alcohol precipitation.
Samples from rat toxicology studies were analyzed for miRNA levels using a qPCR-based assay (Raymond et al, 2005, RNA 11:1737; WO 2006/081282). Control slope and intercept values for miR-10a was calculated from a concentration series of miR-10a added to total yeast RNA and then analyzed using the qPCR assay. The slope and intercept values from the standard curve were used to calculate the amount of miR-10a in each sample expressed as the number of miRNA copies per 20 ng of total RNA in each sample. Cycle threshold values (Ct) for each sample were converted to miRNA copy numbers by comparison to a standard curve generated using single stranded mature miR-10a and are expressed in Table 7 as copies/20 pg input RNA (approximately equivalent to copies/cell).

Sprague-Dawley rats [3] = assay: Individual sample study: miR-122 in blood plasma of toxicant-treated rats by qPCR; assay type: in vivo, rat; details: Day 2, plasma, individual male rats
Method: (§2) To follow up on the initial results shown in Example 2, blood samples from 44 individual rats that had been treated with varying doses of CBrCl3, CCl4 (another liver toxicant), or TMPD were evaluated using qPCR of miR-122 and miR-133. In addition, data from histopathology and a panel of standard biomarkers (ALT, AST, CK, skTnI, etc.) were also available for these same individual rats and were used to compare the results from microRNA assays with the standard histopathology and protein biomarkers.
as §1, with “liver,” for “kidney,”, “compound” for “Test Compound”
(§3) Skeletal Muscle Toxicant • 2,3,5,6-tetramethyl-p phenylenediamine (TMPD) • Doses: 2, 4 mg/kg bid • Dosing: 0.9% NaCl by subcutaneous injection • Animals: Sprague Dawley Male Rats • Time Points: TMPD Plasma (Day 2) and Controls (5 samples per group, […] pooled=500 μl total).
(§4) Liver Toxicant • Trichlorobromomethane (CCl3Br) • Doses: 0.03, 0.1 ml/kg • Dosing: 100% liquid paraffin by oral gavage • Animals: Sprague Dawley Male Rats • Time Point: CCl3Br Plasma (Days 2 & 4) and Controls (4 controls, 3 samples per group, 100 μl each) • Carbon Tetrachloride (CCl4) • Doses: 0.03, 0.1, 0.3 ml/kg • Dosing: 100% liquid paraffin by oral gavage • Animals: Sprague Dawley Male Rats • Time Point: CCl4 Plasma (Days 2) and Controls (4 samples per group, 100 μl each)
(§5) Plasma Samples All plasma samples were collected in EDTA tubes at final necropsy from the vena cava. Samples were inverted several times, and centrifuged for 20 minutes at 2,900 RPM at 4° C. Plasma samples were removed and stored at −70° C. Pooled blood plasma samples from rat toxicology studies were analyzed using a qPCR-based assay (Raymond et al, 2005, RNA 11:1737; WO 2006/081282). Control slope and intercept values for miR-122 and miR-133 were calculated from a concentration series of each microRNA added to total yeast RNA and then analyzed using the qPCR assay for each miRNA. The slope and intercept values from the standard curve were used to calculate the amount of each respective miRNA in each sample expressed as the number of miRNA copies per 20 ng of total RNA in each sample. Cycle threshold values (Ct) for each sample were converted to miRNA copy numbers by comparison to standard curves generated using single stranded mature miRNAs and are expressed in Table 4 as copies/20 pg input RNA (approximately equivalent to copies/cell).

Sprague-Dawley rats [4] = assay: Individual sample study: miR-133 in blood plasma of toxicant-treated rats by qPCR; assay type: in vivo, rat; details: Day 2, plasma, individual male rats
Method: as §2
as §1, with “liver,” for “kidney,”, “compound” for “Test Compound”
as §3, §4, §5

Sprague-Dawley rats [5] = assay: Pooled sample study: miR-122 in blood plasma of toxicant-treated rats by qPCR; assay type: in vivo; details: pooled rat plasma (5 samples), cerivastatin 1.0 mg/kg/day oral Day 14, CBrCl3 0.1 ml/kg oral Days 2 & 4, TMPD 6 mg/kg bid s.c. Day 3
Method: (§6) To explore the feasibility of detecting miRNA tissue injury biomarkers in plasma, a pilot study was performed in which pooled blood plasma samples from rat toxicology studies were analyzed using a qPCR-based assay (Raymond et at, 2005, RNA 11:1737; WO 2006/081282). The miRNAs miR-122 and miR-133 were chosen for quantification because they are extremely abundant and specific to liver and muscle, respectively (FIG. 1). Stored plasma samples from rats that had previously been treated with a liver damaging agent trichlorobromomethane (CBrCl3) or with one of two muscle damaging agents 2,3,5,6-tetramethyl-p phenylenediamine (TMPD) or cerivastatin) were assayed form miRNA levels using qPCR.
as §1, with “liver,” for “kidney,”, “compound” for “Test Compound”
(§7) Skeletal Muscle Toxicant • 2,3,5,6-tetramethyl-p phenylenediamine (TMPD) • Doses: 6 mg/kg bid • Dosing: 0.9% NaCl by subcutaneous injection • Animals: Sprague Dawley Male Rats • Time Points Day 3, TMPD Plasma (Day 3) and Controls (5 samples, 100 ul each pooled=500 ul total).
(§8) Liver Toxicant • Trichlorbromomethane (CCl3Br) • Doses: 0.1 ml/kg • Dosing: 100% liquid paraffin by oral gavage • Animals: Sprague Dawley Male Rats • Time Point: Day 2, 4 CCl3Br Plasma (Days 2 & 4) and Controls (5 samples, 100 ul each pooled=500 ul total)
(§9) Liver and Muscle Toxicant • Cerivastatin • Doses: 1.0 mg/kg/day • Dosing: 0.5% methylcellulose by oral gavage • Animals: Sprague Dawley Female Rats • Time Point Day 14 Cerivastatin Plasma (Day 14) and Controls (5 samples, 100 ul each pooled=500 μl total)
as §5, with “expressed” for “expressed in Table 4”

Sprague-Dawley rats [6] = assay: Muscle histopathology (quad, soleus) of TMPD-treated rats; assay type: in vivo, rat; design: key: 1 = very slight; 2 = slight or small; 3 = moderate; 4 = marked; 5 = severe tissue injury; details: Day 2, individual male rats
Method: as §2
as §1, with “liver,” for “kidney,”, “compound” for “Test Compound”
as §3

Sprague-Dawley rats [7] = assay: Pooled sample study: miR-133 in blood plasma of toxicant-treated rats by qPCR; assay type: in vivo; details: pooled rat plasma (5 samples), cerivastatin 1.0 mg/kg/day oral Day 14, CBrCl3 0.1 ml/kg oral Days 2 & 4, TMPD 6 mg/kg bid s.c. Day 3
Method: as §6
as §1, with “liver,” for “kidney,”, “compound” for “Test Compound”
as §7, §8, §9
as §5, with “expressed” for “expressed in Table 4”

Sprague-Dawley rats [8] = assay: Clinical chemistry (AST, ALT, CK) in blood plasma of toxicant-treated rats; assay type: in vivo, rat; details: for ALT / AST / CK: Day 2, plasma, individual male rats
Method: as §2
as §1, with “liver,” for “kidney,”, “compound” for “Test Compound”
as §3, §4

Sprague-Dawley rats [9] = assay: Liver histopathology scores of toxicant-treated rats; assay type: in vivo, rat; details: TMPD-treated rats
Method: as §2
as §1, with “liver,” for “kidney,”, “compound” for “Test Compound”
as §4

Gentamicin
Kidney Histopathology: Proximal tubule overall tissue injury (highest severity grade measured at Day 12) (Sprague-Dawley rats [1]): 5 | miR-10a (Sprague-Dawley rats [2]; Day 3, urine): 11.98 copies/20 pg input RNA and 3.51 copies/20 pg input RNA and 0.03 copies/20 pg input RNA and 0.05 copies/20 pg input RNA and 10.00 copies/20 pg input RNA | miR-10a (Sprague-Dawley rats [2]; Day 9, urine): 0.96 copies/20 pg input RNA and 0.64 copies/20 pg input RNA and 16.88 copies/20 pg input RNA and 51.03 copies/20 pg input RNA and 6.61 copies/20 pg input RNA and 4.90 copies/20 pg input RNA and 58.70 copies/20 pg input RNA and 38.01 copies/20 pg input RNA and 25.61 copies/20 pg input RNA | miR-10a (Sprague-Dawley rats [2]; Day 12, urine): 3.5 copies/20 pg input RNA and 9.46 copies/20 pg input RNA and 4.17 copies/20 pg input RNA and 2.13 copies/20 pg input RNA and 4.99 copies/20 pg input RNA and 3.46 copies/20 pg input RNA and 3.86 copies/20 pg input RNA and 23.75 copies/20 pg input RNA and 10.40 copies/20 pg input RNA

Cc1c(C)c(N)c(C)c(C)c1N [TMPD, 2,3,5,6-tetramethyl-p phenylenediamine]
miR-122 (Sprague-Dawley rats [3]; TMPD 2 mg/kg bid subcutaneous): 2.6 copies/20 pg input RNA and 5.6 copies/20 pg input RNA and 7.3 copies/20 pg input RNA and 0.8 copies/20 pg input RNA and 2.2 copies/20 pg input RNA | miR-122 (Sprague-Dawley rats [3]; TMPD 4 mg/kg bid subcutaneous): 9.5 copies/20 pg input RNA and 1.8 copies/20 pg input RNA and 15.7 copies/20 pg input RNA and 11.7 copies/20 pg input RNA and 3.2 copies/20 pg input RNA | miR-133 (Sprague-Dawley rats [4]; TMPD 2 mg/kg bid subcutaneous): 0.9 copies/20 pg input RNA and 4.3 copies/20 pg input RNA and 9.3 copies/20 pg input RNA and 1.3 copies/20 pg input RNA and 4.1 copies/20 pg input RNA | miR-133 (Sprague-Dawley rats [4]; TMPD 4 mg/kg bid subcutaneous): 19.3 copies/20 pg input RNA and 63.9 copies/20 pg input RNA and 79.3 copies/20 pg input RNA and 63.8 copies/20 pg input RNA and 16.7 copies/20 pg input RNA | miR-122 Copies (Sprague-Dawley rats [5]; 250 ng total RNA input): 89353.3 | miR-122 Ct Mean (Sprague-Dawley rats [5]; 250 ng total RNA input): 26.2479 | miR-122 Copies/20 pg (Sprague-Dawley rats [5]): 7.1 Copies/20 pg | Muscle Histopathology Quad (Overall Damage) (Sprague-Dawley rats [6]; TMPD 2 mg/kg bid subcutaneous): 0 (4×) and 1 | Muscle Histopathology Soleus (Overall Damage) (Sprague-Dawley rats [6]; TMPD 2 mg/kg bid subcutaneous): 0 | Muscle Histopathology Quad (Overall Damage) (Sprague-Dawley rats [6]; TMPD 4 mg/kg bid subcutaneous): 1 (3×) and 2 (2×) | Muscle Histopathology Soleus (Overall Damage) (Sprague-Dawley rats [6]; TMPD 4 mg/kg bid subcutaneous): 1 (3×) and 0 (2×) | miR-133 Copies (Sprague-Dawley rats [7]; 250 ng total RNA input): 4753175 | miR-133 Ct Mean (Sprague-Dawley rats [7]; 250 ng total RNA input): 23.7323 | miR-133 Copies/20 pg (Sprague-Dawley rats [7]): 380.3 Copies/20 pg | ALT (Sprague-Dawley rats [8]; TMPD 2 mg/kg bid subcutaneous): 29 U/L and 36 U/L and 37 U/L and 27 U/L and 30 U/L | AST (Sprague-Dawley rats [8]; TMPD 2 mg/kg bid subcutaneous): 120 U/L and 164 U/L and 203 U/L and 111 U/L and 167 U/L | CK (Sprague-Dawley rats [8]; TMPD 2 mg/kg bid subcutaneous): 424 U/L and 695 U/L and 696 U/L and 450 U/L and 463 U/L | ALT (Sprague-Dawley rats [8]; TMPD 4 mg/kg bid subcutaneous): 60 U/L and 133 U/L and 215 U/L and 94 U/L and 56 U/L | AST (Sprague-Dawley rats [8]; TMPD 4 mg/kg bid subcutaneous): 357 U/L and 1250 U/L and 1740 U/L and 700 U/L and 501 U/L | CK (Sprague-Dawley rats [8]; TMPD 4 mg/kg bid subcutaneous): 363 U/L and 767 U/L and 1252 U/L and 439 U/L and 343 U/L | ALT versus controls (Sprague-Dawley rats [8]; rats dosed with TMPD, plasma): significantly elevated | AST versus controls (Sprague-Dawley rats [8]; rats dosed with TMPD, plasma): significantly elevated | liver histopathology (Sprague-Dawley rats [9]): no liver histopathology has been observed
